From PubChem BioAssay AID504542 (Sanford-Burnham Center for Chemical Genomics, 2011)
pIC50: −log10 of the molar value.

test system: S. cerevisiae TIM10 counterscreen strain, luminescence; assay: TIM10 counterscreen strain luminescent signal reducers – S. cerevisiae, uHTS hits, counter-screen for tim10-1 inhibitor project, dose response (AID 504542)

`CCCOc1ccc(N2C(=O)CC(N3CCC(O)(c4cccc(C(F)(F)F)c4)CC3)C2=O)cc1` (configuration not stated) was tested. Which pIC50 did it give?
Its pIC50 is 5.40.

`Cn1c(/C=C/c2ccc([N+](=O)[O-])o2)nc2ccccc2c1=O` was tested. Which pIC50 did it give?
Its pIC50 is 5.31.

`O=c1c2ccccc2nc(/C=C/c2ccc([N+](=O)[O-])o2)n1CCCO` was tested. Which pIC50 did it give?
Its pIC50 is 5.35.

With `COc1cc(N=c2ssnc2Cl)c(OC)cc1Cl` as the molecule, how does the pIC50 read?
The pIC50 was 5.50.

`C[C@@H]1CC=C[C@H]2[C@H]1C(=O)N(Cc1ccccc1)[C@H]2c1ccc(-c2ccoc2)cc1F` was tested. Which pIC50 did it give?
Its pIC50 is 5.15.

With `CCCCc1ccc(NC(=S)Nc2ccc(Nc3ccc(OC)cc3)cc2)cc1` as the molecule, how does the pIC50 read?
The pIC50 was 4.91.

`Cc1ccccc1OCC(=O)Nc1ccc(S(=O)(=O)N2CCCC2)cc1` was tested. Which pIC50 did it give?
The pIC50 was 5.27.

With `CC(=O)c1ccc(NC(=S)NC(C)c2ccc(Cl)cc2Cl)cc1` (configuration not stated) as the molecule, how does the pIC50 read?
The pIC50 was 5.04.

With `COc1ccc(-c2cc(C3CC3)nc3sc(C#N)c(N)c23)cc1` as the molecule, how does the pIC50 read?
The pIC50 was 5.35.

With `Cc1ccc(/C(N)=N/OC(=O)c2ccc3c(c2)OCO3)cc1` as the molecule, how does the pIC50 read?
Its pIC50 is 5.62.

With `CCOC(=O)c1ccc(N2C(=O)C=CC2=O)cc1` as the molecule, how does the pIC50 read?
Its pIC50 is 6.39.

`COc1ccc2cc3cc(C(=O)NCCN4CCc5ccccc5C4)oc3nc2c1` was tested. Which pIC50 did it give?
Its pIC50 is greater than 6.70.

With `O=C(Nc1cccc(N2C(=O)C=CC2=O)c1)c1cccs1` as the molecule, how does the pIC50 read?
Its pIC50 is 5.58.

How did the pIC50 turn out when `CC(C)NC(=S)N/N=C1\CCCCc2ccccc21` was run?
The pIC50 was 5.44.

With `Fc1ccc(CNC(=S)Nc2cccc(C(F)(F)F)c2)cc1` as the molecule, how does the pIC50 read?
Its pIC50 is 5.06.

How did the pIC50 turn out when `O=C1CC(Sc2nnnn2-c2ccccc2)C(=O)N1c1cccc(Cl)c1` (configuration not stated) was run?
The pIC50 was 5.76.

With `Cc1nc(Nc2ccccc2)sc1-c1ccccc1` as the molecule, how does the pIC50 read?
Its pIC50 is 5.51.

With `Nc1c(C(=O)Nc2ccccc2)c2nc3ccccc3nc2n1CCCN1CCOCC1` as the molecule, how does the pIC50 read?
Its pIC50 is 5.01.

With `CCOC(=O)/C=C/C(=O)OCC(=O)Nc1ccc([N+](=O)[O-])cc1` as the molecule, how does the pIC50 read?
The pIC50 was 5.40.

How did the pIC50 turn out when `CC1(CC(=O)N/N=C/c2ccc(OCc3ccc(Cl)cc3Cl)cc2)OCCCO1` was run?
The pIC50 was 5.53.

How did the pIC50 turn out when `Cc1ccc(NC(=O)c2cc(S(=O)(=O)NCCC3=CCCCC3)ccc2F)cc1` was run?
The pIC50 was 4.91.

`CCCCCCC(=O)N(O)C1CC(=O)N(c2ccc(C)cc2)C1=O` (configuration not stated) was tested. Which pIC50 did it give?
Its pIC50 is 5.36.

How did the pIC50 turn out when `CNC(=O)c1nnsc1S(=O)(=O)c1ccc(Cl)cc1` was run?
Its pIC50 is 4.89.

`c1ccc(Nc2cccc(Nc3ccccc3)n2)cc1` was tested. Which pIC50 did it give?
The pIC50 was 5.22.

With `CCOC(=O)c1ccc(N=c2ssnc2Cl)cc1` as the molecule, how does the pIC50 read?
The pIC50 was 5.73.

With `O=C1C2C3C=CC(CO)(O3)C2C(=O)N1c1ccccc1-c1ccccc1` (configuration not stated) as the molecule, how does the pIC50 read?
The pIC50 was 5.90.

`CC1=C/C(=N\OS(=O)(=O)c2ccccc2)C(C)=CC1=O` was tested. Which pIC50 did it give?
The pIC50 was greater than 6.70.

How did the pIC50 turn out when `Nc1nc(-c2ccc(Br)cc2)cs1` was run?
Its pIC50 is 4.98.

`Cc1cc(C)c(CSc2ncc(-c3ccc([N+](=O)[O-])cc3)[nH]2)c(C)c1` was tested. Which pIC50 did it give?
Its pIC50 is 5.00.

With `CCCOc1ccccc1NC(=O)/C=C/C(N)=O` as the molecule, how does the pIC50 read?
Its pIC50 is 6.06.

How did the pIC50 turn out when `O=C(NNC(=S)Nc1cccc(C(F)(F)F)c1)c1ccc(Cl)cc1Cl` was run?
Its pIC50 is 5.09.

With `CC[C@@H]1CC=C[C@H]2[C@H]1C(=O)N(Cc1ccccc1)[C@H]2c1ccoc1` as the molecule, how does the pIC50 read?
Its pIC50 is 5.60.

With `COc1ccc(/C(C)=N/NC(=S)NCCc2ccccc2)cc1` as the molecule, how does the pIC50 read?
Its pIC50 is 5.11.

How did the pIC50 turn out when `COc1cc(/C=C/c2ccc3cccc(O)c3n2)c(Br)cc1O` was run?
Its pIC50 is 5.04.

`O=C(NNC(=S)Nc1ccc(Cl)cc1)c1ccccc1OC(F)F` was tested. Which pIC50 did it give?
The pIC50 was 5.35.

How did the pIC50 turn out when `CCOc1ccc(-n2cc(-c3ccccc3)c3c(=O)[nH]cnc32)cc1` was run?
Its pIC50 is 5.23.

How did the pIC50 turn out when `O=C(O)/C=C/C(=O)c1ccc2c(c1)CCc1ccccc1-2` was run?
Its pIC50 is 5.48.

How did the pIC50 turn out when `N#C/C(=N/Nc1ccc(OC(F)(F)F)cc1)C(N)=S` was run?
Its pIC50 is 5.91.

`Cc1cccc(NC(=O)c2ccc([N+](=O)[O-])s2)n1` was tested. Which pIC50 did it give?
The pIC50 was 5.86.

With `CCOC(=O)c1ccc(NC(=O)CC2OCCN(CC)C2=O)cc1` (configuration not stated) as the molecule, how does the pIC50 read?
Its pIC50 is 5.89.

`O=C(/C=C\c1ccc(-c2ccccc2)o1)c1ccccc1` was tested. Which pIC50 did it give?
The pIC50 was 5.62.

How did the pIC50 turn out when `c1ccc(Nc2cccc(Nc3ccccc3)c2)cc1` was run?
Its pIC50 is 5.30.

With `N/C(Cc1ccc(Cl)cc1Cl)=N\OC(=O)Cc1ccc(Cl)cc1` as the molecule, how does the pIC50 read?
Its pIC50 is 6.13.

How did the pIC50 turn out when `CCCOc1ccc(CN(CCC#N)C(=S)NC(=O)c2ccccc2)cc1` was run?
Its pIC50 is 4.99.

With `CN=C(Nc1cc(Cl)ccc1Cl)SC1CC(=O)N(c2ccc(C(=O)OC)cc2)C1=O` (configuration not stated) as the molecule, how does the pIC50 read?
The pIC50 was 5.20.

How did the pIC50 turn out when `O=c1oc2ccccc2c(O)c1/C=C1\C=Nc2ccccc21` was run?
The pIC50 was 5.21.

With `Cc1ccc(NC(=S)/N=C(\N)Nc2nc(C)c3cc(C)ccc3n2)c(C)c1` as the molecule, how does the pIC50 read?
Its pIC50 is 4.92.
